GI50 and TGI data for seven compounds are collected here from PubChem BioAssay (NCI).

Structures are written as SMILES.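 Step 1: Grow cells in 96-well plates. Step 2: Expose to compound for 48 hours at 5 concentrations. Step 3: Interpolate endpoints linearly; if unreached, use highest concentration. The concentration for 50% growth inhibition is given as GI50. TGI: concentration producing complete growth inhibition.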

Some test systems named below: A549 NSCLC; COLO 205 colon; DU-145 prostate; EKVX NSCLC; MCF7 breast; MOLT-4 leukemia; NCI-H522 lung; UO-31 renal.
What all share (assay): NCI anticancer screen, dose series, 48 h

Consider `Cc1[nH][nH]c(=O)c1C=Nc1ccc(-c2nc3ccccc3[nH]2)cc1`, for which the GI50 was 42.9 µM in the experiment on A549 NSCLC; 19.5 µM in the experiment with COLO 205 colon; 34.8 µM in the experiment on DU-145 prostate; 19.8 µM in the experiment on EKVX NSCLC; 52 µM in the experiment with MOLT-4 leukemia; 31.1 µM in the experiment on NCI-H522 lung. Further, the GI50 with UO-31 renal was 31.8 µM. Besides, the TGI in the experiment on A549 NSCLC was above 100 µM; in the experiment on COLO 205 colon, 48.1 µM; in the experiment with DU-145 prostate, above 100 µM; in the experiment on EKVX NSCLC, 51.1 µM; in the experiment on MCF7 breast, 0.612 µM; in the experiment with MOLT-4 leukemia, above 100 µM. Besides, the TGI with NCI-H522 lung is 78.1 µM; in the experiment on UO-31 renal it was above 100 µM.
Consider `O=C(O)c1ccccc1-c1ccccc1C(=O)Nc1ccc2c(c1)Cc1cc(F)ccc1-2`, for which the TGI in the experiment with A549 NSCLC is 85.9 µM; with COLO 205 colon, 32.7 µM; with DU-145 prostate it was above 100 µM; in the experiment with EKVX NSCLC it was 77.3 µM; in the experiment with MCF7 breast, 85.5 µM; in the experiment on MOLT-4 leukemia, above 100 µM. The TGI with NCI-H522 lung was 63 µM; in the experiment on UO-31 renal, above 100 µM.
On to `CN(C)Cc1c[nH]c2c1C(=O)c1c(c(O)c3ccccc3c1O)C2=O`, for which the GI50 is 7.59 µM with A549 NSCLC; 0.0386 µM in the experiment with COLO 205 colon; 0.923 µM in the experiment with DU-145 prostate; 0.603 µM in the experiment on EKVX NSCLC; 3.22 µM in the experiment on MCF7 breast; 3.42 µM in the experiment on MOLT-4 leukemia. The GI50 in the experiment on NCI-H522 lung is 12.6 µM; in the experiment on UO-31 renal it was 8.6 µM. Moreover, the TGI was 20.6 µM in the experiment with A549 NSCLC; above 100 µM with COLO 205 colon; 11.5 µM with DU-145 prostate; 5.28 µM in the experiment with EKVX NSCLC; 15.5 µM in the experiment with MCF7 breast; above 100 µM in the experiment with MOLT-4 leukemia. For the same compound, the TGI in the experiment with NCI-H522 lung is 35.4 µM; in the experiment on UO-31 renal, 29.5 µM.
As to `Nc1ccncc1/C=C1/C(=O)Nc2ccccc21`, the GI50 with A549 NSCLC was 56.9 µM; with COLO 205 colon, 19.8 µM; in the experiment on DU-145 prostate it was 44.9 µM; with EKVX NSCLC it was 47.2 µM; in the experiment on MCF7 breast, 26.6 µM; in the experiment with MOLT-4 leukemia, 37.3 µM. Moreover, the values for the GI50 in the experiment with NCI-H522 lung and in the experiment on UO-31 renal were 24 µM and 18.9 µM, respectively. Further, the TGI with A549 NSCLC, with COLO 205 colon, in the experiment on DU-145 prostate, in the experiment with EKVX NSCLC, in the experiment on MCF7 breast and in the experiment on MOLT-4 leukemia was above 100 µM in each case. Also, the TGI in the experiment with NCI-H522 lung is 71.6 µM; in the experiment on UO-31 renal it was above 100 µM.
For the compound `COc1cc2cn3c4ccc(O)cc4[nH]c(=O)c3c2cc1OC`, the GI50 was 0.042 µM in the experiment with A549 NSCLC; 0.0201 µM in the experiment with COLO 205 colon; 0.0229 µM in the experiment with DU-145 prostate; 0.0607 µM with EKVX NSCLC; 0.0341 µM in the experiment on MCF7 breast; 0.0439 µM in the experiment with MOLT-4 leukemia. The GI50 is below 0.01 µM with NCI-H522 lung and 0.0398 µM in the experiment with UO-31 renal. Further, the TGI in the experiment on A549 NSCLC stood at 1.3 µM; in the experiment on COLO 205 colon, 0.429 µM; with DU-145 prostate, 1.25 µM; with EKVX NSCLC, 2 µM; in the experiment with MCF7 breast it was 1.62 µM; in the experiment with MOLT-4 leukemia it was 2.01 µM. Moreover, the values for the TGI with NCI-H522 lung and in the experiment on UO-31 renal were 0.0263 µM and 1.64 µM, respectively.
Take `CCN(CC)CCNCC(=O)Oc1ccc(/C=C/C(=O)CC(=O)/C=C/c2ccc(OC(=O)CNCCN(CC)CC)c(OC)c2)cc1OC`: the GI50 in the experiment with A549 NSCLC was 6.73 µM; with COLO 205 colon, 5.06 µM; with DU-145 prostate it was 2.74 µM; with EKVX NSCLC it was 2.01 µM; in the experiment with MCF7 breast, 2.58 µM; in the experiment with MOLT-4 leukemia, 5.14 µM. Also, the GI50 in the experiment on NCI-H522 lung is 3.29 µM; in the experiment on UO-31 renal, 3.48 µM. Besides, the TGI with A549 NSCLC is 39.8 µM; in the experiment on COLO 205 colon it was 22.8 µM; in the experiment with DU-145 prostate it was 9.56 µM; in the experiment with EKVX NSCLC it was 5.4 µM; with MCF7 breast it was 18 µM; with MOLT-4 leukemia it was above 100 µM. The values for the TGI with NCI-H522 lung and in the experiment on UO-31 renal were 11.6 µM and 11 µM, respectively.
For `COc1ccc(-n2cc(-c3ccc(Cl)c(Cl)c3)nc2SCc2cccc(C#N)c2)cc1`, the GI50 with A549 NSCLC was 93.8 µM; in the experiment with COLO 205 colon, 51.7 µM; in the experiment on DU-145 prostate, above 100 µM; in the experiment with EKVX NSCLC it was 41.9 µM; with MCF7 breast, 34.5 µM; with MOLT-4 leukemia, 19.4 µM. Moreover, the GI50 with NCI-H522 lung was 13.6 µM; with UO-31 renal it was 35.2 µM. Further, the TGI with A549 NSCLC, in the experiment on COLO 205 colon, in the experiment with DU-145 prostate, in the experiment on EKVX NSCLC, in the experiment with MCF7 breast and in the experiment with MOLT-4 leukemia was above 100 µM throughout. The TGI in the experiment with NCI-H522 lung and with UO-31 renal was above 100 µM throughout.
